Target: T1, human toll like receptor 7 (hTLR7) (Homo sapiens, UniProt Q9NYK1)
T1 construct: host or cells: HEK293 (HEK-Blue hTLR7)
T1 sequence (Q9NYK1 27-1049): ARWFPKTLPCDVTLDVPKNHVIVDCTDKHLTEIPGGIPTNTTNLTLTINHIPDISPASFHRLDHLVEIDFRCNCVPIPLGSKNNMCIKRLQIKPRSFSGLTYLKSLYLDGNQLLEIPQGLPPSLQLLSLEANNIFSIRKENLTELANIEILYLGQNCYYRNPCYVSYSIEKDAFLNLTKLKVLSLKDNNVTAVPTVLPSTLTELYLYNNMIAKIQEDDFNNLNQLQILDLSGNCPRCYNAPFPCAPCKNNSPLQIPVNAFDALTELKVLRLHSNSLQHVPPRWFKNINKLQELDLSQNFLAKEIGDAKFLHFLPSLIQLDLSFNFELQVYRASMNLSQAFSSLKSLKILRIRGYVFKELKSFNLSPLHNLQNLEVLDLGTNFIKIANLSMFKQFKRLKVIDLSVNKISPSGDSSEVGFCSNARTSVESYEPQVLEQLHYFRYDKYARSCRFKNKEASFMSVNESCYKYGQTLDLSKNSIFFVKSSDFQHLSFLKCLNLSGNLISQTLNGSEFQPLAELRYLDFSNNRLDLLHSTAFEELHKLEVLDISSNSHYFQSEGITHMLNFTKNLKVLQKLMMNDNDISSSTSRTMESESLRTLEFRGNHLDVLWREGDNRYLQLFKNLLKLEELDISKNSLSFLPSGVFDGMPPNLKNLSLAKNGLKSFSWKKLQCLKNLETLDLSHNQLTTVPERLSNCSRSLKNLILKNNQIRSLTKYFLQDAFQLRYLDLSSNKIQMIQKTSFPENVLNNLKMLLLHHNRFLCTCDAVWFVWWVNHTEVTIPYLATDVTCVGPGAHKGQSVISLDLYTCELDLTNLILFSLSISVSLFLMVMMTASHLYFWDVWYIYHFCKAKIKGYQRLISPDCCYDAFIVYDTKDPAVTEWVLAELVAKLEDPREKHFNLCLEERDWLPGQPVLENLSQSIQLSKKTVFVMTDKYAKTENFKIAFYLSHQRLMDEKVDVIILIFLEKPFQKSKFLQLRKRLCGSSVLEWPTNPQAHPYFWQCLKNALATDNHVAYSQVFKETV
Assay: hTLR7 in-vitro functional assay (HEK-Blue hTLR7 SEAP reporter)
Type: cell-based
Conditions: HEK-Blue hTLR7 cells, overnight incubation

**Q.** How did the EC50 turn out when `CCCCc1nc2c(N)nc3cc(CCCN4CCN(C(=O)CCOCCOCCOCCOCCOCCOCCOCCOCCOCCOCCOCCOCCOCCOCCOCCOCCOCCOCCOCCOCCOCCOCCOCCOCCNC(=O)CCOCCOCCOCCOCCNC(=O)CCCOc5c(C)c(C)c6c(c5C)CC[C@@](C)(CCC[C@H](C)CCC[C@H](C)CCCC(C)C)O6)CC4)ccc3c2n1CC(C)(CO)CO` [Compound 2, N-{75-[4-(3-{4-amino-2-butyl-1-[3-hydroxy-2-(hydroxymethyl)-2-methylpropyl]-1H-imidazo[4,5-c]quinolin-7-yl}propyl)piperazin-1-yl]-75-oxo-3,6,9,12,15,18,21,24,27,30,33,36,39,42,45,48,51,54,57,60,63,66,69,72-tetracosaoxapentaheptacont-1-yl}-17-oxo-20-({(2R)-2,5,7,8-tetramethyl-2-[(4R,8R)-4,8,12-trimethyltridecyl]-3,4-dihydro-2H-chromen-6-yl}oxy)-4,7,10,13-tetraoxa-16-azaicosan-1-amide] was run?
**A.** 355 nM

Source: US20250135006A1, “AMPHIPHILIC TLR7/8 ADJUVANTS AND USES THEREOF” (Pfizer Inc., priority 2023, published 2025)
